Data published in PubChem BioAssay AID1918949 (Molecular Pharmacology Branch, DTP, NCI, 2023).

Tested on: K24384-001-R-PDC complex spheroid viability
Experiment: Anticancer human tumor K24384-001-R-PDC patient-derived pancreatic adenocarcinoma cell line growth inhibition
Conditions: for IC50: curve of first compound; for viability, T/C: stronger effect = lower value; active means viability on the fitted dose curve at most 10% of control; inactive means the rest
How it was run: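 Complex spheroids of tumor cells with HUVEC and human MSCs, exposed to iadademstat combined with other agents. Each agent tested in half-log steps from near clinical Cmax (else 10 microM top), DMSO ≤0.25%.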
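Further: spheroids exposed to agents for seven days before luminescence viability reading.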
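Wherever viability, T/C is given: 100% = DMSO vehicle control viability.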

CC(C)CC(NC(=O)C(Cc1ccccc1)NC(=O)c1cnccn1)B(O)O (stereo not given) + NC1CCC(NC2CC2c2ccccc2)CC1
0.464 nM: IC50 (second compound 0.1 µM)
active: viability, T/C (second compound 0.1 µM, first compound 0.001 µM) 1.78% | viability, T/C (second compound 0.1 µM, first compound 0.00316 µM) 0.23% | viability, T/C (second compound 0.1 µM, first compound 0.01 µM) 0.12% | viability, T/C (second compound 0.1 µM, first compound 0.0316 µM) 0.2% | viability, T/C (second compound 0.1 µM, first compound 0.1 µM) 0.23% | viability, T/C (second compound 0.316 µM, first compound 0.001 µM) 1.74% | viability, T/C (second compound 0.316 µM, first compound 0.00316 µM) 0.26% | viability, T/C (second compound 0.316 µM, first compound 0.01 µM) 0.08% | viability, T/C (second compound 0.316 µM, first compound 0.0316 µM) 0.76% | viability, T/C (second compound 0.316 µM, first compound 0.1 µM) 1.15% | viability, T/C (second compound 1 µM, first compound 0.001 µM) 2.07% | viability, T/C (second compound 1 µM, first compound 0.00316 µM) 0.15% | viability, T/C (second compound 1 µM, first compound 0.01 µM) 0.08% | viability, T/C (second compound 1 µM, first compound 0.0316 µM) 0.09% | viability, T/C (second compound 1 µM, first compound 0.1 µM) 0.19% | viability, T/C (second compound 3.16 µM, first compound 0.001 µM) 1.45% | viability, T/C (second compound 3.16 µM, first compound 0.00316 µM) 0.27% | viability, T/C (second compound 3.16 µM, first compound 0.01 µM) 0.11% | viability, T/C (second compound 3.16 µM, first compound 0.0316 µM) 0.12% | viability, T/C (second compound 3.16 µM, first compound 0.1 µM) 0.18% | viability, T/C (second compound 10 µM, first compound 0.001 µM) 8.36% | viability, T/C (second compound 10 µM, first compound 0.00316 µM) 2.45% | viability, T/C (second compound 10 µM, first compound 0.01 µM) 0.22% | viability, T/C (second compound 10 µM, first compound 0.0316 µM) 0.21% | viability, T/C (second compound 10 µM, first compound 0.1 µM) 0.3%
0.38 nM: IC50 (second compound 1 µM)
0.422 nM: IC50 (second compound 10 µM)
0.476 nM: IC50 (second compound 0.316 µM)
0.345 nM: IC50 (second compound 3.16 µM)
inactive: viability, T/C (second compound 0.1 µM, first compound 0.000316 µM) 74% | viability, T/C (second compound 0.316 µM, first compound 0.000316 µM) 76.5% | viability, T/C (second compound 1 µM, first compound 0.000316 µM) 59.1% | viability, T/C (second compound 3.16 µM, first compound 0.000316 µM) 53.9% | viability, T/C (second compound 10 µM, first compound 0.000316 µM) 64.1%

O=C(C=Cc1cccc(S(=O)(=O)Nc2ccccc2)c1)NO + NC1CC1c1ccc(-c2cccc(O)c2)cc1
active: viability, T/C (second compound 0.1 µM, first compound 0.949 µM) 3.97% | viability, T/C (second compound 0.1 µM, first compound 3 µM) 2.49% | viability, T/C (second compound 0.316 µM, first compound 0.949 µM) 4.35% | viability, T/C (second compound 0.316 µM, first compound 3 µM) 1.43% | viability, T/C (second compound 1 µM, first compound 0.949 µM) 5.51% | viability, T/C (second compound 1 µM, first compound 3 µM) 0.1% | viability, T/C (second compound 3.16 µM, first compound 0.949 µM) 4.17% | viability, T/C (second compound 3.16 µM, first compound 3 µM) 0.1% | viability, T/C (second compound 10 µM, first compound 0.949 µM) 5.8% | viability, T/C (second compound 10 µM, first compound 3 µM) 0.18%
229 nM: IC50 (second compound 1 µM)
inactive: viability, T/C (second compound 0.1 µM, first compound 0.00949 µM) 105% | viability, T/C (second compound 0.1 µM, first compound 0.03 µM) 111% | viability, T/C (second compound 0.1 µM, first compound 0.0949 µM) 95.5% | viability, T/C (second compound 0.1 µM, first compound 0.3 µM) 39.3% | viability, T/C (second compound 0.316 µM, first compound 0.00949 µM) 90% | viability, T/C (second compound 0.316 µM, first compound 0.03 µM) 108% | viability, T/C (second compound 0.316 µM, first compound 0.0949 µM) 117% | viability, T/C (second compound 0.316 µM, first compound 0.3 µM) 34.4% | viability, T/C (second compound 1 µM, first compound 0.00949 µM) 80.9% | viability, T/C (second compound 1 µM, first compound 0.03 µM) 113% | viability, T/C (second compound 1 µM, first compound 0.0949 µM) 98.1% | viability, T/C (second compound 1 µM, first compound 0.3 µM) 35.6% | viability, T/C (second compound 3.16 µM, first compound 0.00949 µM) 85% | viability, T/C (second compound 3.16 µM, first compound 0.03 µM) 124% | viability, T/C (second compound 3.16 µM, first compound 0.0949 µM) 103% | viability, T/C (second compound 3.16 µM, first compound 0.3 µM) 35.5% | viability, T/C (second compound 10 µM, first compound 0.00949 µM) 81.1% | viability, T/C (second compound 10 µM, first compound 0.03 µM) 114% | viability, T/C (second compound 10 µM, first compound 0.0949 µM) 70.7% | viability, T/C (second compound 10 µM, first compound 0.3 µM) 32.7%
235 nM: IC50 (second compound 3.16 µM)
240 nM: IC50 (second compound 0.1 µM)
185 nM: IC50 (second compound 10 µM)
233 nM: IC50 (second compound 0.316 µM)
